ChEMBL document CHEMBL3400095, “β-sheet interfering molecules acting against β-amyloid aggregation and fibrillogenesis” (Bioorg Med Chem, 2015)

What was measured:
[1] = molecular target: Amyloid-beta precursor protein (Homo sapiens, UniProt P05067); test: Inhibition of amyloid beta (1 to 40) (unknown origin) aggregation
Mus musculus [2] = species: Mus musculus; test: Reduction in amyloid beta levels in Tg2576 mouse; type: functional
Mus musculus [3] = species: Mus musculus; test: Reduction in amyloid beta plaques in Tg2576 mouse; type: functional

Amyloid-beta precursor protein, sequence (P05067 whole entry): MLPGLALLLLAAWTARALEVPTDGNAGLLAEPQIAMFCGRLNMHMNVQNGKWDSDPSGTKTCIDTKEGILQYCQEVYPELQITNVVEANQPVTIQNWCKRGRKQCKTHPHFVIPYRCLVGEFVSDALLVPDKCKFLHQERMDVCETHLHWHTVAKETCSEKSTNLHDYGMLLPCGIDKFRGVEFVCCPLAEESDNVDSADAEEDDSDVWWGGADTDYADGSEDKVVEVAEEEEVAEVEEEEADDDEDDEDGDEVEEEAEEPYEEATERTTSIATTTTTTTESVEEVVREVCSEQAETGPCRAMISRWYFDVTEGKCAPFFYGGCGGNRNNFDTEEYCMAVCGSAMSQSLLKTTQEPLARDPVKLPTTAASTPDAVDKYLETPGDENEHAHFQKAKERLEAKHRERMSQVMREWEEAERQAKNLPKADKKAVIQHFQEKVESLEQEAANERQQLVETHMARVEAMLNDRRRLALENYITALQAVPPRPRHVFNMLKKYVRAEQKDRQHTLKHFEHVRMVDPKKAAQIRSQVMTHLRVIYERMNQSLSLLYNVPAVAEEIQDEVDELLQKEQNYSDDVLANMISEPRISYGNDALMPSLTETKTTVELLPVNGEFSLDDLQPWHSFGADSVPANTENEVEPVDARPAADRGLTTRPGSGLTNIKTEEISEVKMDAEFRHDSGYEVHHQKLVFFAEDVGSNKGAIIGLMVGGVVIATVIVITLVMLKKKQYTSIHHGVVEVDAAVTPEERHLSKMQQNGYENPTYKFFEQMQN

SMILES: CNc1ccc(C(=O)NC(CCCCCNC(=O)OCc2ccccc2)C(=O)O)cc1 (centres undefined)
- IC50 [1]: 2.75 µM

SMILES: O=C(Cc1ccccc1)NC(CSSCC(NC(=O)Cc1ccccc1)C(=O)O)C(=O)O (centres undefined)
- IC50 [1]: 1.95 µM

SMILES: O=C(O[C@@H]1Cc2c(O)cc(O)cc2O[C@@H]1c1cc(O)c(O)c(O)c1)c1cc(O)c(O)c(O)c1 [EPIGALOCATECHIN GALLATE]
- inhibition (INH) (Mus musculus [2]): 50%
- inhibition (INH) (Mus musculus [3]): 50%
